The results in this text go back to PMC3661904 (Neuropharmacology, 2012).

Holding throughout (assay): aequorin intracellular calcium assay, inhibition of ACh response
What all share (type): cell-based
A general note: Calcium flux is commonly read through the fluorescence of an indicator in the cells.

Assay [1] deals with human α3β4α5D nAChR (D398 variant of α5; α3β4α5N carries N398) (Homo sapiens, UniProt P30532+P30926+P32297).
The target in assay [2] is human α3β4 nicotinic acetylcholine receptor (α3β4 nAChR) (Homo sapiens, UniProt P30926+P32297).
Sequence of human α3β4 nicotinic acetylcholine receptor (α3β4 nAChR) (P32297 32-505): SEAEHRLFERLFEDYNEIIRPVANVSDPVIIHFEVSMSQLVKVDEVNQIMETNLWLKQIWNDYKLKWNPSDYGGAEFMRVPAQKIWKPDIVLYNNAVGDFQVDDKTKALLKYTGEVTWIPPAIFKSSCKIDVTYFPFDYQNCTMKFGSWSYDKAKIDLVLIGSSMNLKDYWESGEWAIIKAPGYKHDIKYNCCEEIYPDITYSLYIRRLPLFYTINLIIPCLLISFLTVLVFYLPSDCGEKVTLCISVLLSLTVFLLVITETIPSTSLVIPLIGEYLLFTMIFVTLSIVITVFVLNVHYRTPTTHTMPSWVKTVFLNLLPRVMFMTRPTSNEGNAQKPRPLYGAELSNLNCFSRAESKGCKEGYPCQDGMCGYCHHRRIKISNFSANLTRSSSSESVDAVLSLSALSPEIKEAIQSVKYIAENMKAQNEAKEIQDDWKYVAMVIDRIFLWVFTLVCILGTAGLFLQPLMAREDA
Sequence of human α3β4 nicotinic acetylcholine receptor (α3β4 nAChR) (P30926 22-498): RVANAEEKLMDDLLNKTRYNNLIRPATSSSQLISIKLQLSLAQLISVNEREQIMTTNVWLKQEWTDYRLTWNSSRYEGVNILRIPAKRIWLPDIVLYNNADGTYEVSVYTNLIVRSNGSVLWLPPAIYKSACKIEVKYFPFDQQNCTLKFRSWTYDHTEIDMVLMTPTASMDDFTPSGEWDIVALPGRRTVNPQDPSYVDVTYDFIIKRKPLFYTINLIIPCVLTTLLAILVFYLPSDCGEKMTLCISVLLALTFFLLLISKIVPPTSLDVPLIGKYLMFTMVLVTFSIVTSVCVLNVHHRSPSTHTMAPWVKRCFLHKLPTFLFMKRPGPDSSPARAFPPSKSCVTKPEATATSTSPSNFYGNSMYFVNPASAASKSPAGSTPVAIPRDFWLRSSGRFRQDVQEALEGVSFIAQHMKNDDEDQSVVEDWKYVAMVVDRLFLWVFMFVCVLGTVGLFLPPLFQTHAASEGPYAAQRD
Assay [3] has as its target human α3β4α5D nAChR (D398 variant of α5; α3β4α5N carries N398) (Homo sapiens, UniProt P30532+P30926+P32297, P30532:D398N).

Sequence of human α3β4α5D nAChR (D398 variant of α5; α3β4α5N carries N398) (Homo sapiens, UniProt P30532+P30926+P32297, P30532:D398N) (P32297 32-505): as the sequence (P32297 32-505) above
Sequence of human α3β4α5D nAChR (D398 variant of α5; α3β4α5N carries N398) (Homo sapiens, UniProt P30532+P30926+P32297, P30532:D398N) (P30926 22-498): as the sequence (P30926 22-498) above
Sequence of human α3β4α5D nAChR (D398 variant of α5; α3β4α5N carries N398) (Homo sapiens, UniProt P30532+P30926+P32297, P30532:D398N) (P30532 23-468 D398N): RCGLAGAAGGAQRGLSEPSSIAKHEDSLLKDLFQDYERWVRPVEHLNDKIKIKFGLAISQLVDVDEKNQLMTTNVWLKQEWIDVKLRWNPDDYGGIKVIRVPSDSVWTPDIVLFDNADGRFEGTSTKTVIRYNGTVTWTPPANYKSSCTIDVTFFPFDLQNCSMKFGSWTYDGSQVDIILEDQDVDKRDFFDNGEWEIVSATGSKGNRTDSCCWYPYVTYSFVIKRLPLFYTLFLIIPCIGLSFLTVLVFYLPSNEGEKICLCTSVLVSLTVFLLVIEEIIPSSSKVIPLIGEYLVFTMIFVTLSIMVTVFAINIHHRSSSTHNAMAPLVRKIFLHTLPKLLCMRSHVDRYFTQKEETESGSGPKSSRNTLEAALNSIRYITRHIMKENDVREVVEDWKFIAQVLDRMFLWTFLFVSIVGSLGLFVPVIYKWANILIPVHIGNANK

Usually IC50 stands for the concentration that gives 50% inhibition. In the case of `COc1cc2c3cc1Oc1cc(ccc1O)C[C@@H]1c4c(cc(OC)c(O)c4Oc4ccc(cc4)C[C@@H]3N(C)CC2)CC[N+]1(C)C` [D-Tubocurarine], the IC50 in assay [1] was 0.94 ± 0.21 µM; in assay [2], 1.01 ± 0.24 µM; in assay [3] it was 0.64 ± 0.15 µM.

On to `CCCCCCC(=O)OC1CC(C)(C)NC(C)(C)C1` [TMPH, 2,2,6,6-tetramethylpiperidin-4-yl heptanoate], for which the IC50 in assay [1] worked out at 0.36 ± 0.02 µM; in assay [2], 0.83 ± 0.1 µM; in assay [3], 0.45 ± 0.04 µM.
